Marks after values point to notes of the source that are not given here.

The values that follow come from US7964591B2, “Pyridazine derivatives and their use as therapeutic agents” (Novartis Pharma AG, priority 2003, dated 2011).

Holding throughout (assay type): in vivo, female Crl:NMRI mice
Series [1] relates to sebaceous glands. Description: Topical LCF369 on sebaceous glands of NMRI mice: evaluation of efficacy. How it is done:
(§1) LCF369 is prepared either in a solution of ethanol/propylene glycol (3/7, v/v) or in topical formulations at 1.0, 0.5 or 0.1% for testing in female Crl:NMRI mice. In general, shaved application sites of approximately 2.5 cm^2 on the back of mice are treated twice daily (once on weekends or at study termination) with 50 μl of the LCF369 preparations. To prevent the animals from potential oral uptake of the epicutaneously applied compounds, they are fitted with ruffs and housed individually. After the last application, the animals are euthanised; the treated sites dissected and prepared for histological sections. Hematoxilin/eosin (HE)-stained 3 μm-thick sections are prepared from formalin-fixed, paraffin-embedded tissue. From each animal, one HE-stained section per site is histomorphometrically examined. The entire sections of approximately 10 mm length are evaluated microscopically (200×) for sebaceous glands. The mean size and mean number (per mm^2 dermis) of sectioned alveolar units of the sebaceous glands are determined in a coded fashion with an image analyzer (Axiovision, Zeiss). For statistical analysis, morphometric data are analyzed with a T-test or Mann-Whitney rank sum test. Frozen tissue sections (5 μm) are used for oil red O (lipid) staining.
Groups of 5 mice are treated with 50 μl of 1% or 0.1% LCF369 twice daily (except on weekends, when the animals are treated once daily and on study termination) for 8 days (i.e. 14 applications in total). Four control animals are treated similarly with the vehicle alone. In life, the animals are observed for clinical signs and macroscopic changes of the application sites. One day after the last application, an evaluation is performed. In animals treated with 1.0% LCF369, untreated skin samples distant from the treated sites are also collected in order to assess systemic activity due to percutaneous absorption of LCF369.

In series [2] the test system is sebaceous glands. As to the kind of experiment: Topical LCF369 on sebaceous glands of NMRI mice: minimal treatment period. Conditions: for mean size decrease: 1.0% LCF369 twice daily, vs vehicle. How it is done:
as §1
Groups of 4 mice are treated with 1.0% LCF369 twice daily for 2, 4, 6 and 8 days (i.e. up to 16 applications). Control groups remain untreated or are treated with the vehicle alone twice daily for 8 days.

The subject of series [3] is sebaceous glands. Description: Topical LCF369 on sebaceous glands of NMRI mice: minimal effective concentration. Conditions: LCF369 1.0% (w/v) twice daily, 7 days, mean (SD), 6 animals. How it is done: as §1
LCF369 is tested at 1.0%, 0.5% and 0.1%, groups of 6 mice are treated twice daily for 7 consecutive days. […]

The subject of series [4] is sebaceous glands. As to the kind of experiment: Topical LCF369 on sebaceous glands of NMRI mice: duration of action. How it is done: as §1, with “From each animal, one HE-stained section per site is histomorphometrically examined.” left out, “Frozen tissue sections (5 μm) are used for oil red O (lipid) staining.” left out
A 7-day b.i.d. (twice daily) treatment schedule (except on week ends when the animals were treated once daily) with 1.0% LCF369 is applied to groups of 7 mice which are evaluated on days 8 (one day after the 14th application), 24 and 41. […]

Series [5] relates to sebaceous glands. As to the kind of experiment: Topical LCF369 on sebaceous glands of NMRI mice: clinical service form candidates (0.5% formulations). How it is done: as §1, with “Hematoxilin/eosin (HE)-stained 3 μm-thick sections are prepared from formalin-fixed, paraffin-embedded tissue. From each animal, one HE-stained section per site is histomorphometrically examined.” left out, “Frozen tissue sections (5 μm) are used for oil red O (lipid) staining.” left out
Three different formulations containing 0.5% LCF369 are tested; i) emulsion gel with the penetration enhancer Sepa 09 (batch 92.66.01-ra), ii) emulsion gel without a penetration enhancer (batch 9450-05-Ra), and iii) a formulation containing particulate compound (“follicular targeting formulation”). They are evaluated after 9 or 13 applications.

[6] abbreviates: LCF369-treated vs vehicle-treated skin.

Consider `O=C(NCCC1CC1)c1ccc(N2CCN(C(=O)c3cc(F)ccc3C(F)(F)F)CC2)nn1` [LCF369, 6-[4-(5-Fluoro-2-trifluoromethylbenzoyl)piperazin-1-yl]pyridazine-3-carboxylic acid (2-cyclopropylethyl)amide], for which, in the series on sebaceous glands [1] (0.1% LCF369, 8 days), the atrophogenic effects entry is given as “little or no atrophogenic effects”. Besides, the “reduction of sebaceous glands in sizes (fold)” value in the series with sebaceous glands [1] (1.0% LCF369, 8 days, p<0.01) is given as “about 1.9 fold”. Moreover, the “differences in numbers and sizes of sebaceous glands at sites distant from the treatments” value with sebaceous glands [1] (1.0% LCF369, distant sites) was “no significant differences”. For the same molecule, the “histochemical (HE) staining of treated skin, FIG. 2B” value with sebaceous glands [1] (setting [6]) is “fewer and smaller (atrophic) sebaceous glands”. Further, the “oil red O (lipid) staining of treated skin, FIG. 3B” value with sebaceous glands [1] (setting [6]) was “significantly reduced lipids associated with hair shafts”. For the same molecule, the mean size decrease with sebaceous glands [2] (after 4 days) came to 35%; in the series with sebaceous glands [2] (after 6 days) it was 35%; with sebaceous glands [2] (after 8 days), 72%. The “Maximum reduction in sizes and numbers of sebaceous glands” value with sebaceous glands [2] (topical application, compared to untreated skin) is given as “up to 75%”. In addition, in the series with sebaceous glands [3], the “Number of sebaceous glandular units” value is 10.1 (4.0)*** per mm^2 dermis. For the same molecule, the “atrophogenic effect from LCF369 treatment” value in the series on sebaceous glands [4] (1% LCF369, on day 24) is “substantially reduced”; with sebaceous glands [4] (1% LCF369, on day 41), “almost completely absent”. Further, in the series with sebaceous glands [5] (0.5% LCF369 formulation containing SEPA-9 vs placebo-treated (vehicle-treated) samples), the “hyper/parakeratosis and acanthosis in skin sections” value is “more pronounced”. The “effect on sebaceous glands” value in the series on sebaceous glands [5] (0.5% LCF369 formulation containing penetration enhancer SEPA-9) was “significant atrophy of sebaceous glands”.
